Assay results as given in PubChem BioAssay AID651630 (Sanford-Burnham Center for Chemical Genomics, 2012).
Activity calls are given as the source filed them.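 Rule for the calls: active = lipid-stain IC50 at or below a set limit, with nuclear-stain toxicity IC50 at least five times higher; inactive = the rest.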

Columns and labels:
[1] = tested on: TAG; experiment: TAG lipid buildup inhibition with viability readout – cell-based, panel, Nile Red and DAPI fluorescence, H9c2, dose response (AID 651630); settings: H9c2 cells, Nile Red TAG fluorescence, oleic acid;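 note: cells exposed to compound overnight before fixation and staining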
[2] = tested on: DAPI; experiment: as above; settings: H9c2 cells, DAPI nuclear fluorescence (cytotoxicity counter-readout), oleic acid

Row | Structure (SMILES) | IC50 ([1]; mean of runs) | IC50 ([1]; run 1) [µM] | IC50 ([1]; run 2) [µM] | IC50 cytotoxicity (DAPI nuclear signal decrease) ([2]; mean of runs) | IC50 cytotoxicity (DAPI nuclear signal decrease) ([2]; run 1) [µM] | IC50 cytotoxicity (DAPI nuclear signal decrease) ([2]; run 2) [µM]
1 | COc1cc2c3c(cccc3c1)C(=O)N(CCN1CCCC1)C2=O | 7.94 µM | 8.07 | 7.8 | > 25 µM (inactive) | > 25 | > 25
2 | CC1(C)CCCN(Cc2c(O)ccc3c(=O)c(-c4nc5ccccc5s4)c(N)oc23)C1 | 10 µM | 10 | 10 | > 25 µM (inactive) | > 25 | > 25
3 | O=C1COc2ccc(C(=O)CSc3nc4ccccc4c(=O)n3-c3ccc(Cl)c(Cl)c3)cc2N1 | 13.8 µM | 14.1 | 13.4 | 18.1 µM (inactive) | 18.4 | 17.8
4 | CCOc1ccc(CCNC(=O)c2cc3sc(Cl)cc3n2C)cc1OCC | 5.75 µM | 7.67 | 3.82 | > 25 µM (inactive) | > 25 | > 25
5 | O=C(CC1C[C@H](C(=O)N2CCCCC2)[C@@]2(CCc3ccccc3)c3[nH]c4ccccc4c3CCN2C1=O)NCc1cccc(C(F)(F)F)c1 (stereo not given in full) | 5.34 µM | 4.84 | 5.84 | > 25 µM (inactive) | > 25 | > 25
6 | Cc1ccc(CN(C(=O)c2csnn2)C(C(=O)NC2CCCC2)c2ccc(C)o2)cc1 (stereo not given) | > 25 µM (inactive) | > 25 | > 25 | > 25 µM (inactive) | > 25 | > 25
7 | Cc1ccc(Cn2cc(/C=N/NC(=O)Cc3nnc(NC(=O)c4ccc(C)cc4)s3)c3ccccc32)cc1 | > 25 µM (inactive) | > 25 | > 25 | 16 µM (inactive) | 13.1 | 19
8 | CN(C)CCNC(=O)C(=O)Nc1ccc2c(c1)N(S(=O)(=O)c1cccs1)CCC2 | > 25 µM (inactive) | > 25 | > 25 | > 25 µM (inactive) | > 25 | > 25
9 | COC(=O)c1ccc(Oc2cc(C)nc(SC)n2)cc1 | – | > 25 | 14.1 | > 25 µM (inactive) | > 25 | > 25
10 | Cc1ccc(-c2nn(-c3ccccc3)cc2NC(=O)CCl)cc1 | > 25 µM (inactive) | > 25 | > 25 | – | 20.6 | > 25
11 | COc1ccc(NC(=S)N(CCCN2CCCC2)Cc2cccn2Cc2ccc(Cl)cc2)cc1Cl | – | 16.8 | > 25 | – | 24.1 | > 25
12 | Cc1cc(NC(=O)CC2CCCC2)n(-c2nc3ccccc3[nH]2)n1 | – | > 25 | 11.2 | > 25 µM (inactive) | > 25 | > 25
13 | COCCCn1c(N)c(C(=O)Nc2ccccc2)c2nc3ccccc3nc21 | 13.5 µM | 11.8 | 15.2 | > 25 µM (inactive) | > 25 | > 25
14 | COc1ccc(NC(=O)C2(C)Cc3c(-c4ccc5c(c4)OCO5)ccnc3O2)cn1 (stereo not given) | > 25 µM (inactive) | > 25 | > 25 | > 25 µM (inactive) | > 25 | > 25
15 | C[C@@]12C(=O)Nc3ccc(Br)cc3C(=O)N1[C@H]1c3cc(Cl)ccc3OC[C@@H]1[C@@H]2c1ccccc1 | 14.6 µM | 9.4 | 19.8 | > 25 µM (inactive) | > 25 | > 25
16 | CS(=O)(=O)c1ccc(C(=O)OCC(=O)N2CCOCC2)cc1[N+](=O)[O-] | > 25 µM (inactive) | > 25 | > 25 | > 25 µM (inactive) | > 25 | > 25
17 | Cc1ccc2c(c1)-c1c(cnn1CC(=O)Nc1ccccc1N1CCN(C)CC1)CO2 | – | 24.2 | > 25 | > 25 µM (inactive) | > 25 | > 25

Row | Structure (SMILES) | IC50 ([1]; mean of runs) | IC50 ([1]; run 1) [µM] | IC50 ([1]; run 2) [µM] | IC50 cytotoxicity (DAPI nuclear signal decrease) ([2]; mean of runs) | IC50 cytotoxicity (DAPI nuclear signal decrease) ([2]; run 1) [µM] | IC50 cytotoxicity (DAPI nuclear signal decrease) ([2]; run 2) [µM]
18 | COc1ccc(NC(=O)O[C@@H](C)[C@@H]2CN3CCc4c([nH]c5ccc(-c6ccc(OC)cc6)cc45)[C@@H]3C[C@@H]2N(C)C(=O)Nc2ccc(OC)cc2)cc1 | 8.04 µM | 7.66 | 8.42 | > 25 µM (inactive) | > 25 | > 25
19 | COc1ccccc1-c1cc(NC=O)c2ncc(-c3cccc(C(=O)N(C)C)c3)n2c1 | 15.3 µM (inactive) | 17.5 | 13.1 | > 25 µM (inactive) | > 25 | > 25
20 | COc1ccc2cc3cc(C(=O)NCCc4ccc(OC)c(OC)c4)oc3nc2c1 | > 25 µM (inactive) | > 25 | > 25 | > 25 µM (inactive) | > 25 | > 25
21 | CCCCCc1cc(=O)oc2c(C(CCN3CCN(c4ccccc4)CC3)c3ccc4c(c3)OCO4)c(OC)cc(OC)c12 (stereo not given) | 8.04 µM | 8.42 | 7.65 | > 25 µM (inactive) | > 25 | > 25
22 | CCOC(=O)C1=C(C)N(C[C@@H]2CC[C@@H](Cc3ccc(-c4ccccc4)cc3)O2)C(=O)NC1c1cccc2ccccc12 (stereo not given in full) | 13.6 µM | 14 | 13.2 | > 25 µM (inactive) | > 25 | > 25
23 | CC1CC2(C)Oc3ccccc3CC2C(C)C1CNCCCN(C)C (stereo not given) | > 25 µM (inactive) | > 25 | > 25 | 18.9 µM (inactive) | 18.4 | 19.5
24 | CCOC(=O)c1[nH]c(C)c(C(=O)Nc2ccccc2C)c1C | > 25 µM (inactive) | > 25 | > 25 | > 25 µM (inactive) | > 25 | > 25
25 | COc1cc(OC)cc(C(=O)N2CC(=O)Nc3ccccc32)c1 | > 25 µM (inactive) | > 25 | > 25 | > 25 µM (inactive) | > 25 | > 25
26 | COc1cccc(Nc2nnc(SCc3cc([N+](=O)[O-])cc4c3OCOC4)s2)c1 | > 25 µM (inactive) | > 25 | > 25 | > 25 µM (inactive) | > 25 | > 25
27 | CCOc1ccccc1C1C2=C(COC2=O)Nc2cc3c(cc21)OCO3 (stereo not given) | – | > 25 | < 0.78 | > 25 µM (inactive) | > 25 | > 25
28 | COc1cc(CNC(=O)Nc2nc(C(N)Cc3ccc(Cl)cc3)cs2)cc(OC)c1OC (stereo not given) | 3.91 µM | 3.31 | 4.5 | – | > 25 | > 25
29 | O=C(CCl)Nc1cc2[nH]c(=O)[nH]c2cc1Br | 9.37 µM | 5.97 | 12.8 | 15 µM (inactive) | 11.7 | 18.3
30 | NC(N)=Nc1ccc(C=C2C=Cc3ccccc32)cc1 | 11.8 µM | 12.6 | 11.1 | 22.8 µM (inactive) | 21.2 | 24.5
31 | Cc1ccc(Cc2nnc(SCC(=O)Nc3ccccc3)n(N)c2=O)cc1 | 9.19 µM | 8.57 | 9.8 | > 25 µM (inactive) | > 25 | > 25
32 | CCOc1ccc(CN(C)C(=O)CCl)cc1 | – | > 25 | 22.6 | > 25 µM (inactive) | > 25 | > 25
33 | C[C@@H]1CN([C@@H](C)CO)C(=O)c2cccc(NC(=O)C3CCCCC3)c2O[C@@H]1CN(C)Cc1ccc(Cl)c(Cl)c1 | 11.5 µM | 9.78 | 13.3 | > 25 µM (inactive) | > 25 | > 25
34 | CCOC(=O)c1cc(-c2ccccc2)sc1NC(=O)C(C)N1C(=O)NC(C)(c2ccc(Cl)cc2)C1=O (stereo not given) | 5.58 µM | 5.07 | 6.09 | > 25 µM (inactive) | > 25 | > 25
